Assay results taken from patent US10344019B2 (priority 2010, dated 2019).
Like-named read-outs stand apart in the source and are kept apart here.

How the values were obtained:
Assay in all cases: microbe, parasite or virus in culture
Assay type in all cases: cell-based
[1] = tested on: HCV 2a JFH-1 Rluc cells (dicistronic genotype 2a JFH-1 replicon, RLuc reporter); details: genotype 2a JFH-1 replicon, read-out: 2a JFH
Outline: (§1)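 Replicon cells stably carrying the listed RLuc-encoding dicistronic replicons were seeded and treated with DMSO serial dilutions of compound (10 mM stocks) diluted into culture medium. After 72 h, cells were lysed and Renilla luciferase activity measured. EC50 was derived by non-linear regression.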

[2] = tested on: HCV 1a RLuc cells (dicistronic genotype 1a H77 replicon, RLuc reporter); details: read-out: 1a
Outline: as §1

[3] = tested on: HCV 4a Rluc cells (NS5A chimeric genotype 1b Con1 replicon with genotype 4a NS5A gene); details: Hepatitis C virus, read-out: 4a
Outline: as §1

[4] = tested on: HCV 1b RLuc cells (dicistronic genotype 1b Con1 replicon, RLuc reporter)
Outline: as §1

[5] = tested on: HCV 3a RLuc cells (NS5A chimeric genotype 1b Con1 replicon with consensus genotype 3a NS5A gene)
Outline: as §1

[6] = Hepatitis C virus, 72 h, read-out: 1b (nM)
[7] = Hepatitis C virus, 72 h, Table 2, 72 hours
[8] = Hepatitis C virus, 72 h, Table 2, genotype 1a H77 replicon, 72 hours
[9] = Hepatitis C virus, read-out: 3a, Table 2, genotype 3a NS5A chimeric replicon
[10] = Hepatitis C virus, RLuc reporter
[11] = Hepatitis C virus, genotype 1a H77 replicon, RLuc reporter
[12] = Hepatitis C virus, read-out: 1b (nM)
[13] = Hepatitis C virus, read-out: 3a, genotype 3a NS5A chimeric 1b Con1 replicon
[14] = Hepatitis C virus, genotype 1a replicon
[15] = Hepatitis C virus, read-out: 3a, genotype 3a replicon

SMILES	EC50 [3] [nM]	EC50 [1, 10] [nM]	EC50 [2, 11] [nM]	EC50 [4, 12] [nM]	EC50 [5, 13] [nM]	also measured
COC(=O)N[C@H](C(=O)N1CCC[C@H]1c1ncc(-c2ccc3c4ccc(-c5cnc([C@@H]6CCCN6C(=O)[C@@H](NC(=O)OC)C(C)C)[nH]5)cc4c4nccnc4c3c2)[nH]1)C(C)C [Example 18]	0.001 to 0.99					EC50 ([1]; Hepatitis C virus, 72 h, Table 1, 72 hours): 0.001 to 0.999 nM; EC50 ([2]; Hepatitis C virus, 72 h, Table 1, genotype 1a H77 replicon, 72 hours): 0.001 to 0.999 nM; EC50 [4, 6]: 0.018 nM; EC50 ([5]; Hepatitis C virus, read-out: 3a, Table 1, genotype 3a NS5A chimeric replicon): 1 to 4.99 nM
COC(=O)N[C@H](C(=O)N1CCC[C@H]1c1ncc(-c2ccc3c(c2)C(F)(F)c2cc(-c4ccc5nc([C@@H]6CC7(CN6C(=O)[C@H](NC(=O)OC)c6ccccc6)OCCO7)[nH]c5c4)ccc2-3)[nH]1)C1CCOCC1 [Example 58]	0.001 to 0.99					EC50 [1, 7]: 0.001 to 0.999 nM; EC50 [2, 8]: 0.001 to 0.999 nM; EC50 [4, 6]: 0.017 nM; EC50 [5, 9]: 1 to 4.99 nM
CCN(C(=O)OC)[C@@H](C(=O)N1CCC[C@H]1c1ncc(-c2ccc(-c3ccc4cc(-c5cnc([C@@H]6CCCN6C(=O)[C@@H](NC(=O)OC)C(C)C)[nH]5)ccc4c3)cc2)[nH]1)c1ccccc1 [Example 203]	0.001 to 0.99	1 to 44	> 44	0.124	> 5	
COC(=O)N[C@H](C(=O)N1CCC[C@H]1c1ncc(-c2ccc3cc(-c4ccc(-c5cnc([C@@H]6CCCN6C(=O)[C@@H](N)C6CCSCC6)[nH]5)cc4)ccc3c2)[nH]1)C(C)C [Example 277]	1 to 4.99	> 44	1 to 44	1.06	> 5	
COC(=O)N[C@H](C(=O)N1CC(F)(F)C[C@H]1c1ncc(-c2ccc(-c3ccc4cc(-c5cnc([C@@H]6CCCN6C(=O)[C@H](NC(=O)OC)c6ccccc6)[nH]5)ccc4c3)cc2)[nH]1)C(C)C [Example 232]	0.001 to 0.99	0.001 to 0.999	0.001 to 0.999	0.004	0.001 to 0.99	
COC(=O)N[C@H](C(=O)N1CCC[C@H]1c1ncc(-c2ccc(-c3ccc4c(ccc5nc([C@@H]6[C@H]7CC[C@H](C7)N6C(=O)[C@@H](NC(=O)OC)C(C)C)[nH]c54)c3)cc2Cl)[nH]1)C(C)C [Example 371]	0.001 to 0.99			0.007		EC50 ([1]; Hepatitis C virus): 0.001 to 0.999 nM; EC50 [2, 14]: 0.001 to 0.999 nM; EC50 [5, 15]: > 5 nM
CC#Cc1cc(-c2cnc([C@@H]3[C@H]4CC[C@H](C4)N3C(=O)[C@@H](NC(=O)OC)C3CCOCC3)[nH]2)ccc1-c1ccc2c(ccc3nc([C@@H]4CCCN4C(=O)[C@@H](NC(=O)OC)C(C)C)[nH]c32)c1 [Example 322]	0.001 to 0.99			0.021		EC50 ([1]; Hepatitis C virus): 0.001 to 0.999 nM; EC50 [2, 14]: 0.001 to 0.999 nM; EC50 [5, 15]: 0.001 to 0.99 nM
COC(=O)N[C@H](C(=O)N1[C@H]2CC[C@H](C2)[C@H]1c1nc2ccc3cc(-c4ccc5c(ccc6nc([C@@H]7CCCN7C(=O)[C@@H](NC(=O)OC)C7CCOCC7)[nH]c65)c4)ccc3c2[nH]1)C(C)C [Example 338]	0.001 to 0.99			0.127		EC50 ([1]; Hepatitis C virus): 0.001 to 0.999 nM; EC50 [2, 14]: 0.001 to 0.999 nM; EC50 [5, 15]: 0.001 to 0.99 nM
COC(=O)N[C@H](C(=O)N1CCC[C@H]1c1ncc(-c2ccc3cc(-c4ccc(-c5cnc([C@@H]6[C@H]7CC[C@H](C7)N6C(=O)[C@H](NC(=O)OC)c6ccccc6)[nH]5)cc4)ccc3c2)[nH]1)C(C)C [Example 48]	0.001 to 0.99					EC50 [1, 7]: 1 to 44 nM; EC50 [2, 8]: 0.001 to 0.999 nM; EC50 [4, 6]: 0.007 nM; EC50 [5, 9]: 1 to 4.99 nM
COC(=O)N[C@H](C(=O)N1CCC[C@H]1c1nc2c([nH]1)-c1ccc(-c3ccc4cc(-c5cnc([C@@H]6CCCN6C(=O)[C@H](NC(=O)OC)c6ccccc6)[nH]5)ccc4c3)cc1CC2)C1CCOCC1 [Example 279]	0.001 to 0.99					EC50 ([1]; RLuc reporter): 1 to 44 nM; EC50 ([2]; genotype 1a H77 replicon, RLuc reporter): 1 to 44 nM; EC50 ([4]; read-out: 1b): 0.031 nM; EC50 ([5]; read-out: 3a, genotype 3a NS5A chimeric 1b Con1 replicon): 0.001 to 0.99 nM
COC(=O)N[C@H](C(=O)N1CCC[C@H]1c1ncc(-c2ccc3c(c2)cc(C#N)c2cc(-c4cnc([C@@H]5CCCN5C(=O)[C@@H](NC(=O)OC)C(C)C)[nH]4)ccc23)[nH]1)C(C)C [Example 274]	0.001 to 0.99	1 to 44	1 to 44	0.011	1 to 4.99	
COC(=O)N[C@H](C(=O)N1CCC[C@H]1c1nc2ccc3cc(-c4ccc5c(c4)CCc4nc([C@@H]6[C@H]7CC[C@H](C7)N6C(=O)[C@@H](NC(=O)OC)[C@@H](C)OC)[nH]c4-5)ccc3c2[nH]1)C(C)C [Example 88]	0.001 to 0.99					EC50 [1, 7]: 0.001 to 0.999 nM; EC50 [2, 8]: 0.001 to 0.999 nM; EC50 [4, 6]: 0.019 nM; EC50 [5, 9]: 0.001 to 0.99 nM
COC(=O)NC(C(=O)N1CCC[C@@H]1c1nc(-c2ccc3c(c2)C(F)(F)c2cc(-c4ccc5nc([C@@H]6[C@H]7CC[C@H](C7)N6C(=O)[C@H](NC(=O)OC)c6ccccc6)[nH]c5c4)ccc2-3)c[nH]1)[C@@H](C)OC (stereo partly shown) [Example 81]	0.001 to 0.99					EC50 [1, 7]: 0.001 to 0.999 nM; EC50 [2, 8]: 0.001 to 0.999 nM; EC50 [4, 6]: 0.006 nM; EC50 [5, 9]: 0.001 to 0.99 nM
COC(=O)N[C@H](C(=O)N1CCC[C@H]1c1nc2c([nH]1)-c1ccc(-c3ccc4cc(-c5cnc([C@@H]6CCCN6C(=O)[C@H](NC(=O)OC)c6ccccc6)[nH]5)ccc4c3)cc1CC2)C1CCN(C(=O)OC(C)(C)C)CC1 [Example 270]	0.001 to 0.99	0.001 to 0.999	0.001 to 0.999	0.032	0.001 to 0.99	
COC(=O)N[C@H](C(=O)N1CCC[C@H]1c1nc2ccc(-c3ccc4c(c3)C(F)(F)c3cc(-c5c[nH]c([C@@H]6CCCN6C(=O)[C@H](NC(=O)OC)c6ccccc6)n5)ccc3-4)cc2[nH]1)C(C)C [Example 217]	0.001 to 0.99	0.001 to 0.999	0.001 to 0.999	0.009	0.001 to 0.99	
COC(=O)N[C@H](C(=O)N1CCC[C@H]1c1nc2c([nH]1)-c1ccc(-c3ccc4cc(-c5cnc([C@@H]6CCCN6C(=O)[C@H](NC(=O)C6CCOCC6)c6ccccc6)[nH]5)ccc4c3)cc1CC2)C(C)C [Example 246]	0.001 to 0.99	0.001 to 0.999	0.001 to 0.999	0.045	0.001 to 0.99	
COC(=O)N[C@H](C(=O)N1CCC[C@H]1c1ncc(-c2ccc3c(c2)CCc2cc(-c4cnc([C@@H]5[C@H]6CC[C@H](C6)N5C(=O)[C@@H](NC(=O)OC)[C@@H](C)OC)[nH]4)ccc2-3)[nH]1)C(C)C [Example 93]	0.001 to 0.99					EC50 [1, 7]: 0.001 to 0.999 nM; EC50 [2, 8]: 0.001 to 0.999 nM; EC50 [4, 6]: 0.023 nM; EC50 [5, 9]: 0.001 to 0.99 nM
COC(=O)NC(C(=O)N1CCC[C@H]1c1nc(-c2ccc3cc(-c4ccc5c(ccc6nc([C@@H]7CCCN7C(=O)[C@@H](NC(=O)OC)C(C)C)[nH]c65)c4)ccc3c2)c[nH]1)c1cccnc1 (stereo partly shown) [Example 228]	0.001 to 0.99	0.001 to 0.999	0.001 to 0.999	0.015	0.001 to 0.99	
COC(=O)N[C@H](C(=O)N1[C@@H]2C[C@@H]2C[C@H]1c1nc2ccc3cc(-c4ccc(-c5cnc([C@@H]6[C@H]7CC[C@H](C7)N6C(=O)[C@@H](NC(=O)OC)C6CCOCC6)[nH]5)cc4)ccc3c2[nH]1)C(C)C [Example 335]	0.001 to 0.99			0.027		EC50 ([1]; Hepatitis C virus): 0.001 to 0.999 nM; EC50 [2, 14]: 0.001 to 0.999 nM; EC50 [5, 15]: 0.001 to 0.99 nM
COC(=O)N[C@H](C(=O)N1[C@@H]2CC[C@@H](C2)[C@H]1c1nc2ccc3cc(-c4ccc(-c5cnc([C@@H]6C[C@H]7C[C@H]7N6C(=O)[C@@H](NC(=O)OC)C(C)C)[nH]5)cc4)ccc3c2[nH]1)C(C)C [Example 340]	0.001 to 0.99			0.013		EC50 ([1]; Hepatitis C virus): 0.001 to 0.999 nM; EC50 [2, 14]: 0.001 to 0.999 nM; EC50 [5, 15]: 0.001 to 0.99 nM
COC(=O)N[C@H](C(=O)N[C@H](c1nc(-c2ccc3c(c2)C(F)(F)c2cc(-c4ccc5nc([C@@H]6CCCN6C(=O)[C@H](NC(=O)OC)c6ccccc6)[nH]c5c4)ccc2-3)c[nH]1)C(C)C)C1CCOCC1 [Example 227]	0.001 to 0.99	0.001 to 0.999	1 to 44	0.025	0.001 to 0.99	
COC(=O)NC(C(=O)N1CCC[C@H]1c1ncc(-c2ccc3cc(-c4ccc(-c5cnc([C@@H]6C[C@@H](C)CN6C(=O)[C@@H](NC(=O)OC)C6CCOCC6)[nH]5)cc4)ccc3c2)[nH]1)c1ccccc1 (stereo partly shown) [Example 204]	0.001 to 0.99	0.001 to 0.999	0.001 to 0.999	0.03	0.001 to 0.99	
COC(=O)N[C@H](C(=O)N1CCC[C@H]1c1ncc(-c2ccc(-c3ccc4c(ccc5nc([C@@H]6CCCN6C(=O)[C@@H](NC(=O)OC)C(C)C)[nH]c54)c3)c(C#CC3CC3)c2)[nH]1)C(C)C [Example 349]	0.001 to 0.99			0.005		EC50 ([1]; Hepatitis C virus): 0.001 to 0.999 nM; EC50 [2, 14]: 0.001 to 0.999 nM; EC50 [5, 15]: 0.001 to 0.99 nM
